Earlier results in patent publication US9458123B2, “Methods, pharmaceutical compositions, therapeutic systems, and compounds for treating B cell malignancies” (University of Rochester, priority 2012, dated 2016).

Target: Ubc13 and Uev1A (Homo sapiens, UniProt P61088+Q13404)
Conditions: previous studies; cited from earlier work

Chain of Ubc13 and Uev1A (P61088 whole entry, species assumed): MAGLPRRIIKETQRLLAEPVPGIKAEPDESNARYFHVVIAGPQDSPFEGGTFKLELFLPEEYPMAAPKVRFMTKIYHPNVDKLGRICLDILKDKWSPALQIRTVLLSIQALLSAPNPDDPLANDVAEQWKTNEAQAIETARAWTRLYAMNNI
Chain of Ubc13 and Uev1A (Q13404 whole entry, species assumed): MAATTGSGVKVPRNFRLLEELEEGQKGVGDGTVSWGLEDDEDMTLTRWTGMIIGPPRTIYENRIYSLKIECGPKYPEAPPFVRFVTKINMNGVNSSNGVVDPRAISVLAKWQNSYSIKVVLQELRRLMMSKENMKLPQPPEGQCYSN

SMILES: C[C@@H](N)[C@@H](O)C/C=C\C/C=C\C/C=C\C/C=C\C/C=C\C/C=C\CCCCCC[C@H](O)[C@@H](C)N [leucettamol A]
- complex formation between Ubc13 and Uev1A in vitro: inhibited
